Here are results for 16 compounds from US10112937B2, “P2X7 modulators and methods of use” (Janssen Pharmaceutica NV, priority 2013, dated 2018).

Each structure is given as a SMILES string. Bounds are passed on as bounds.

What all share (assay type): cell-based
The target of one experiment is rat P2X7 (Rattus norvegicus (Rat), UniProt Q64663). Put plainly: Ca2+ flux (FLIPR) in 1321N1 cells expressing recombinant rat P2X7.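 Note: Calcium-4 dye fluorescence change read 180 s after agonist addition, with cells preincubated 30 min with compound and dye in 96-well plates.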 For orientation: A change in cytosolic calcium serves as a functional read-out for many receptors and channels.
Chain of rat P2X7 (Q64663 whole entry): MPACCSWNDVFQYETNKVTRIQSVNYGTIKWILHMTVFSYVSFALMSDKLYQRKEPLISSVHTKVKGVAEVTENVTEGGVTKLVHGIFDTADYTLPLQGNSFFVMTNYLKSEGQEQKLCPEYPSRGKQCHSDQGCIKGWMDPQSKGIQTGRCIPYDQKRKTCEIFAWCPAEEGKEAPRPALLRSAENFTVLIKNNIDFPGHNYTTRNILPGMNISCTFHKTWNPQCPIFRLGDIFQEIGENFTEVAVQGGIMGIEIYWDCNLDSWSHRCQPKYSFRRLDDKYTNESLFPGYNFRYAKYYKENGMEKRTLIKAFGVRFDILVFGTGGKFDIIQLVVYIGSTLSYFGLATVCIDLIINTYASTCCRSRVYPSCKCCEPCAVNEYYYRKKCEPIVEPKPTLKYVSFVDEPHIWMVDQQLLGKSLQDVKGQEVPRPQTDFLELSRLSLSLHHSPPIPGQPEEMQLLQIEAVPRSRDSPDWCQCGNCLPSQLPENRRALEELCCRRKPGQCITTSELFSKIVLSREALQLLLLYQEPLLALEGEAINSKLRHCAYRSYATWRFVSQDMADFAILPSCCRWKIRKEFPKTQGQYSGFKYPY
Experiment [1] addresses T1, human P2X7 (Homo sapiens (Human), UniProt Q99572). The experiment can be described thus: Ca2+ flux (FLIPR) in 1321N1 cells expressing recombinant human P2X7.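 Note: cells loaded with Calcium-4 dye, preincubated with test compound for 30 min, fluorescence change read 180 s after agonist addition.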
For experiment [2], the target named is T1, human P2X7. The experiment can be described thus: P2X7 antagonism in human PBMCs (IL-1β release after LPS + Bz-ATP, ELISA). The following applies: human PBMCs.
[3] abbreviates: 1321N1 cells, recombinant rat P2X7, 250 μM BzATP.
The mark [4] stands for this setting: 1321N1 cells, recombinant human P2X7, 250 μM BzATP.
[5] abbreviates: Ca2+ flux, 250 μM BzATP, rat P2X7 1321N1 cells.
[6] abbreviates: Ca2+ flux, 250 μM BzATP, human P2X7 1321N1 cells.
The mark [7] stands for this setting: 10 μM test compound, LPS + Bz-ATP.

T1 sequence (Q99572 whole entry): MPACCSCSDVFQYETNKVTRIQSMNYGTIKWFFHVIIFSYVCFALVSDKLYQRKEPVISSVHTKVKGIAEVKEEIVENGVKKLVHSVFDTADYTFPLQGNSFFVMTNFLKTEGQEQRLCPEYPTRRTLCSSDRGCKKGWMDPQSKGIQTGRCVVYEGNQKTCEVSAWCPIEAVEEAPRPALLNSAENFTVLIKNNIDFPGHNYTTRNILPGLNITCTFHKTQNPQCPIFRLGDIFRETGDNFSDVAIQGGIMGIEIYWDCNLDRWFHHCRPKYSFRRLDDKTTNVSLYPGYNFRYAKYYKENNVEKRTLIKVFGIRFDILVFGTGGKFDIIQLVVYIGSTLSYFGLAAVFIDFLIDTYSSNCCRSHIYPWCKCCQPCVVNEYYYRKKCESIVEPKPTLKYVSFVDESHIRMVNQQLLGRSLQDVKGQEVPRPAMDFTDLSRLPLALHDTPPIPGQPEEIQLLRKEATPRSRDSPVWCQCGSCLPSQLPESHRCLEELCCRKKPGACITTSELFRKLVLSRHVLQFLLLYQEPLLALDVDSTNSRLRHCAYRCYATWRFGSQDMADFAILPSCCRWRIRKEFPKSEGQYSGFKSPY
Experimental for rat P2X7: P2X7 Antagonism in Recombinant Human P2X7 Cells or Recombinant Rat P2X7 Cells: (a) Ca^2+ Flux and (b) Radioligand Binding
1321N1 cells expressing the recombinant human or rat P2X7 channel was cultured in HyQ DME/(HyClone/Dulbecco's Modified Eagle Medium) high glucose supplemented with 10% Fetal Bovine Serum (FBS) and appropriate selection marker. Cells were seeded at a density of 25000 cells/well (96-well clear bottom black walled plates) in 100 μl volume/well. On the day of the experiment, cell plates were washed with assay buffer, containing (in mM): 130 NaCl, 2 KCl, 1 CaCl2, 1 MgCl2, 10 HEPES, 5 glucose; pH 7.40 and 300 mOs. After the wash, cells were loaded with the Calcium-4 dye (Molecular Device) and incubated in the dark for 60 minutes. Test compounds were prepared at 250× the test concentration in neat DMSO. Intermediate 96-well compound plates were prepared by transferring 1.2 μL of the compound into 300 μL of assay buffer. A further 3× dilution occurred when transferring 50 μL/well of the compound plate to 100 μL/well in the cell plate. Cells were incubated with test compounds and dye for 30 minutes. […] The fluorescence change was measured 180 seconds after adding the agonist.

The IC50 is the concentration that inhibits the measured activity by half. For `Cc1ccnc(-n2nnc3c2CCN(C(=O)c2cccc(OC(F)(F)F)c2F)C3C)c1` (stereo not drawn) [Example 373, (2-fluoro-3-(trifluoromethoxy)phenyl)(4-methyl-1-(4-methylpyridin-2-yl)-6,7-dihydro-1H-[1,2,3]triazolo[4,5-c]pyridin-5(4H)-yl)methanone], the results for the IC50 on rat P2X7 (setting [3]) and on human P2X7 [1] (setting [4]) were 10.1 µM and 1660 nM, respectively. At human P2X7 [2] (test compound 10 μM), the “PBMC 10 μM (% control)” value stood at 17.2 % control.

In the case of `Cc1cc(-n2nnc3c2CCN(C(=O)c2cccc(OC(F)(F)F)c2F)C3C)ncc1F` (stereo not drawn) [Example 374, (2-fluoro-3-(trifluoromethoxy)phenyl)(1-(5-fluoro-4-methylpyridin-2-yl)-4-methyl-6,7-dihydro-1H-[1,2,3]triazolo[4,5-c]pyridin-5(4H)-yl)methanone], the values for the 50% inhibitory concentration (IC50) on rat P2X7 (setting [3]) and at human P2X7 [1] (setting [4]) were > 10 µM and > 10000 nM, respectively. Besides, the “PBMC 10 μM (% control)” value on human P2X7 [2] (test compound 10 μM) came out at 104.3 % control.

Regarding `CC1c2nnn(-c3ncc[nH]3)c2CCN1C(=O)c1cccc(Cl)c1Cl` (stereo not drawn) [Example 384, (1-(1H-imidazol-2-yl)-4-methyl-6,7-dihydro-1H-[1,2,3]triazolo[4,5-c]pyridin-5(4H)-yl)(2,3-dichlorophenyl)methanone], the IC50 at rat P2X7 (setting [3]) was > 10 µM; at human P2X7 [1] (setting [4]), 1380 nM. At human P2X7 [2] (test compound 10 μM), the “PBMC 10 μM (% control)” value is recorded as −6.3 % control.

As for `Cc1cc(-n2nnc3c2CCN(C(=O)c2cccc(C(F)(F)F)c2F)C3C)ncn1` (stereo not drawn) [Example 396, (2-fluoro-3-(trifluoromethyl)phenyl)(4-methyl-1-(6-methylpyrimidin-4-yl)-6,7-dihydro-1H-[1,2,3]triazolo[4,5-c]pyridin-5(4H)-yl)methanone], the values for the half-maximal inhibitory concentration (IC50) at rat P2X7 (setting [3]) and at human P2X7 [1] (setting [4]) were > 10 µM and 9770 nM, respectively. The “PBMC 10 μM (% control)” value on human P2X7 [2] (test compound 10 μM) was 23.0 % control.

With `Cc1nccc(-n2nnc3c2CCN(C(=O)c2cccc(C(F)(F)F)c2Cl)C3C)n1` (stereo not drawn) [Example 398, (2-chloro-3-(trifluoromethyl)phenyl)(4-methyl-1-(2-methylpyrimidin-4-yl)-6,7-dihydro-1H-[1,2,3]triazolo[4,5-c]pyridin-5(4H)-yl)methanone], the IC50 was > 10 µM at rat P2X7 (setting [3]) and 538 nM on human P2X7 [1] (setting [4]). In addition, the “PBMC 10 μM (% control)” value at human P2X7 [2] (test compound 10 μM) is on record as 0.2 % control.

With `Cc1nccc(-n2nnc3c2CCN(C(=O)c2ccnc(C(F)(F)F)c2Cl)C3C)n1` (stereo not drawn) [Example 399, (3-chloro-2-(trifluoromethyl)pyridin-4-yl)(4-methyl-1-(2-methylpyrimidin-4-yl)-6,7-dihydro-1H-[1,2,3]triazolo[4,5-c]pyridin-5(4H)-yl)methanone], the IC50 at rat P2X7 (setting [3]) was > 10 µM; at human P2X7 [1] (setting [4]) it was 1720 nM. Moreover, the “PBMC 10 μM (% control)” value at human P2X7 [2] (test compound 10 μM) is given as 1.1 % control.

Take `Cc1nccc(-n2nnc3c2CCN(C(=O)c2cccc(C(F)(F)F)c2F)C3C)n1` (stereo not drawn) [Example 400, (2-fluoro-3-(trifluoromethyl)phenyl)(4-methyl-1-(2-methylpyrimidin-4-yl)-6,7-dihydro-1H-[1,2,3]triazolo[4,5-c]pyridin-5(4H)-yl)methanone]: the figures for the IC50 at rat P2X7 (setting [3]) and at human P2X7 [1] (setting [4]) were > 10 µM and 16900 nM, respectively. On human P2X7 [2] (test compound 10 μM), the “PBMC 10 μM (% control)” value came out at 32.0 % control.

As for `Cc1cc(-n2nnc3c2CCN(C(=O)c2ccnc(C(F)(F)F)c2Cl)C3C)ncn1` (stereo not drawn) [Example 403, (3-chloro-2-(trifluoromethyl)pyridin-4-yl)(4-methyl-1-(6-methylpyrimidin-4-yl)-6,7-dihydro-1H-[1,2,3]triazolo[4,5-c]pyridin-5(4H)-yl)methanone], the IC50 at rat P2X7 (setting [3]) was determined as 12.5 µM; on human P2X7 [1] (setting [4]), 436 nM. Moreover, at human P2X7 [2] (test compound 10 μM), the “PBMC 10 μM (% control)” value is −0.2 % control.

Consider `CCn1ccc(-n2nnc3c2CCN(C(=O)c2cccc(C(F)(F)F)c2Cl)[C@H]3C)n1` [Example 405, (S)-(2-chloro-3-(trifluoromethyl)phenyl)(1-(1-ethyl-1H-pyrazol-3-yl)-4-methyl-6,7-dihydro-1H-[1,2,3]triazolo[4,5-c]pyridin-5(4H)-yl)methanone], for which the IC50 came out at 2.3 µM on rat P2X7 (setting [5]) and 1600 nM at human P2X7 [1] (setting [6]). Moreover, at human P2X7 [2] (setting [7]), the “PBMC 10 μM (% control)” value is reported as −0.4 % control.

For the compound `CCn1ccc(-n2nnc3c2CCN(C(=O)c2ccnc(C(F)(F)F)c2F)[C@H]3C)n1` [Example 409, (S)-(1-(1-ethyl-1H-pyrazol-3-yl)-4-methyl-6,7-dihydro-1H-[1,2,3]triazolo[4,5-c]pyridin-5(4H)-yl)(3-fluoro-2-(trifluoromethyl)pyridin-4-yl)methanone], the IC50 at rat P2X7 (setting [5]) worked out at 0.0184 µM; on human P2X7 [1] (setting [6]), 28.9 nM. For the same compound, at human P2X7 [2] (setting [7]), the “PBMC 10 μM (% control)” value was determined as 0.5 % control.

As to `CC(C)n1ccc(-n2nnc3c2C[C@H](C)N(C(=O)c2cccc(C(F)(F)F)c2Cl)C3)n1` [Example 412, (S)-(2-chloro-3-(trifluoromethyl)phenyl)(1-(1-isopropyl-1H-pyrazol-3-yl)-6-methyl-6,7-dihydro-1H-[1,2,3]triazolo[4,5-c]pyridin-5(4H)-yl)methanone], the half-maximal inhibitory concentration (IC50) on rat P2X7 (setting [5]) came to 0.0041 µM; at human P2X7 [1] (setting [6]) it was 28.3 nM. In addition, the “PBMC 10 μM (% control)” value on human P2X7 [2] (setting [7]) is −12.6 % control.

Consider `CC(C)n1ccc(-n2nnc3c2C[C@H](C)N(C(=O)c2cccc(C(F)(F)F)c2F)C3)n1` [Example 414, (S)-(2-fluoro-3-(trifluoromethyl)phenyl)(1-(1-isopropyl-1H-pyrazol-3-yl)-6-methyl-6,7-dihydro-1H-[1,2,3]triazolo[4,5-c]pyridin-5(4H)-yl)methanone], for which the IC50 on rat P2X7 (setting [5]) was 36.6 µM; on human P2X7 [1] (setting [6]) it was > 10000 nM. For the same compound, at human P2X7 [2] (setting [7]), the “PBMC 10 μM (% control)” value was 22.4 % control.

`CC(C)n1ccc(-n2nnc3c2CCN(C(=O)c2cccc(C(F)(F)F)c2F)[C@H]3C)n1` [Example 415, (S)-(2-fluoro-3-(trifluoromethyl)phenyl)(1-(1-isopropyl-1H-pyrazol-3-yl)-4-methyl-6,7-dihydro-1H-[1,2,3]triazolo[4,5-c]pyridin-5(4H)-yl)methanone]: the IC50 at rat P2X7 (setting [5]) was determined as 0.0129 µM; at human P2X7 [1] (setting [6]), 146 nM. In addition, the “PBMC 10 μM (% control)” value at human P2X7 [2] (setting [7]) is given as 1.5 % control.

For `CC(C)n1ccc(-n2nnc3c2C[C@H](C)N(C(=O)c2ccnc(C(F)(F)F)c2Cl)C3)n1` [Example 416, (S)-(3-chloro-2-(trifluoromethyl)pyridin-4-yl)(1-(1-isopropyl-1H-pyrazol-3-yl)-6-methyl-6,7-dihydro-1H-[1,2,3]triazolo[4,5-c]pyridin-5(4H)-yl)methanone], the IC50 on rat P2X7 (setting [5]) was determined as 0.0081 µM; on human P2X7 [1] (setting [6]), 47.3 nM. The “PBMC 10 μM (% control)” value on human P2X7 [2] (setting [7]) turned out to be 1.9 % control.

Regarding `CC(C)n1ccc(-n2nnc3c2CCN(C(=O)c2ccnc(C(F)(F)F)c2F)[C@H]3C)n1` [Example 419, (S)-(3-fluoro-2-(trifluoromethyl)pyridin-4-yl)(1-(1-isopropyl-1H-pyrazol-3-yl)-4-methyl-6,7-dihydro-1H-[1,2,3]triazolo[4,5-c]pyridin-5(4H)-yl)methanone], the IC50 was determined as 0.0157 µM at rat P2X7 (setting [5]) and 92 nM on human P2X7 [1] (setting [6]). Further, the “PBMC 10 μM (% control)” value on human P2X7 [2] (setting [7]) was −0.4 % control.

Take `C[C@H]1c2nnn(-c3ccsc3)c2CCN1C(=O)c1cccc(C(F)(F)F)c1Cl` [Example 421, (S)-(2-chloro-3-(trifluoromethyl)phenyl)(4-methyl-1-(thiophen-3-yl)-6,7-dihydro-1H-[1,2,3]triazolo[4,5-c]pyridin-5(4H)-yl)methanone]: the half-maximal inhibitory concentration (IC50) was > 10 µM at rat P2X7 (setting [5]) and 1030 nM on human P2X7 [1] (setting [6]). In addition, on human P2X7 [2] (setting [7]), the “PBMC 10 μM (% control)” value is −1.4 % control.
